Results taken from patent publication US8058309B2, “Protein kinase modulators and therapeutic uses thereof” (Novotyr Therapeutics Ltd., priority 2006, dated 2011).
Entries after “also recorded” stand apart in the source; their conditions may differ. Where two headings read alike, the source gives them in different places.

Experiments:
PANC1 = experiment: Proliferation assay PANC1; type: cell-based; details: Homo sapiens, PANC-1, Pancreatic, 72 hours
Procedure: (§1) Various cancer cell lines (listed in table 1) were plated at a density of 1000-5000 cells/well in 96-well plates in 90111 growth medium containing 10% FCS, 100 units/ml penicillin and 100 μg/ml streptomycin. Inhibitors were added a day later in 10 μl of 1% DMSO in DDW to obtain final concentrations of 0, 0.1, 0.3, 1, 3, and 10 μM. The final concentration of DMSO (0.1% DMSO) was kept constant in all samples. Medium with inhibitors was refreshed a day and two days later. Following exposure of the cells to the inhibitors for 72 hours at 37° C., the cells were fixed in 0.5% gluteraldehyde in medium for 10 min, washed three times with DDW, once with 0.1M sodium borate buffer pH 8.5 and stained with 1% methylene blue dissolved in 0.1M borate buffer solution for 60 min. Excess dye was washed out and cell-bound dye was eluted with 200 μl/well of 0.1 M HCl. The optical density value was read at 620 nm in ELISA plate reader. The data was analyzed in Microsoft Excel, using the vehicle control as 100% proliferation. The assays were performed in triplicates. The values in table 1 represent IC50 values derived from the dose-dependent growth curves obtained.
(§2) Compounds 6, 7, 8, and 9 were tested for their inhibitory potential in cell proliferation assay. In this assay cells were exposed to increasing concentrations of the molecules (at 0.1% DMSO in all wells) a day after seeding. Medium and inhibitors were refreshed every day, and following three days of treatment, cells were fixed and stained with methylene-Blue. IC50 values were determined from the curves of the optical density against compound concentration. The assay was performed in triplicates.

YUMAC = experiment: Proliferation assay YUMAC; type: cell-based; details: Homo sapiens
Procedure: as §1, §2

[1] = tested on: ovarian cancer A2780 cells; experiment: Apoptosis (cleaved PARP) in A2780 cells; type: cell-based, human; details: 21 hours of exposure
Excerpt: […] Lysate preparation and western blot were the same as described above. Apoptosis was detected by immunoblotting with rabbit anti-PARP antibodies.

MDA MB 231 = experiment: Proliferation assay MDA MB 231; type: cell-based; details: Homo sapiens, Breast, 72 hours
Procedure: as §1, §2

B16 [2] = experiment: Proliferation assay B16; type: cell-based; details: Mus musculus, Melanoma, 72 hours
Procedure: as §1, §2

OVCAR3 = experiment: Proliferation assay OVCAR3; type: cell-based; details: Homo sapiens, OVCAR-3, Ovarian, 72 hours
Procedure: as §1, §2

PC3 [3] = experiment: Proliferation assay PC3; type: cell-based, human; details: Prostate
Procedure: as §1, §2

DU145 = experiment: Proliferation assay DU145; type: cell-based; details: Homo sapiens, DU-145, Prostate, 72 hours
Procedure: as §1, §2

LIM 1215 = experiment: Proliferation assay LIM 1215; type: cell-based; details: LIM1215, Colon, 72 hours
Procedure: as §1, §2

AsPC1 = experiment: Proliferation assay AsPC1; type: cell-based; details: Homo sapiens, Pancreatic, 72 hours
Procedure: as §1, §2

A2780 = experiment: Proliferation assay A2780; type: cell-based; details: Homo sapiens, Ovarian, 72 hours
Procedure: as §1, §2

NCl-H526 = experiment: Proliferation assay NCl-H526; type: cell-based; details: Lung, 72 hours
Procedure: as §1, §2

U138MG [4] = experiment: Proliferation assay U138MG; type: cell-based; details: Homo sapiens, U138-MG, Glioma, 72 hours
Procedure: as §1, §2

BAF3 Bcr-Abl = experiment: Proliferation assay BAF3 Bcr-Abl; type: cell-based; details: Mus musculus, Pro B, 72 hours
Procedure: as §1, §2

YURIF = experiment: Proliferation assay YURIF; type: cell-based; details: Homo sapiens
Procedure: as §1, §2

T47D = experiment: Proliferation assay T47D; type: cell-based; details: Homo sapiens, Breast, 72 hours
Procedure: as §1, §2

U266 = experiment: Proliferation assay U266; type: cell-based; details: Homo sapiens, U-266, Myeloma, 72 hours
Procedure: as §1, §2

PC3 [5] = experiment: Clonogenic assay PC3; type: cell-based; details: Homo sapiens, PC-3, Prostate
Procedure: (§3) Various cancer cells (listed in table 1) were seeded at a very low concentration (19 cells/well in 96-well plates or 63 cells/well in 24-well plates) in growth medium. A day later medium was replaced with growth medium containing various concentrations of inhibitors in a final concentration of 0.1% DMSO. The inhibitor-containing medium was refreshed three times a week. Following approximately two weeks cells were fixed by adding Gluteraldehide (0.5% final concentration) for 10 min, washed three time with DDW, once with borate buffer 0.1M and stained for 1 hour with 1% Methylene Blue in borate buffer 0.1M. Access stain was washed with water, and following drying colonies were counted. Alternatively, stain was extracted by 0.1N HCl for 1 hour and absorbance at 620 nm was measured by ELISA Reader. The assays were performed in triplicates. The values in table 1 represent IC50 values derived from the dose-dependent growth curves obtained.

SKBR-3 = experiment: Proliferation assay SKBR-3; type: cell-based; details: Homo sapiens, SK-BR-3, Breast, 72 hours
Procedure: as §1, §2

K562 = experiment: Proliferation assay K562; type: cell-based; details: Homo sapiens, Leukemia, 72 hours
Procedure: as §1, §2

Colo-205 = experiment: Proliferation assay Colo-205; type: cell-based; details: Homo sapiens, Colon, 72 hours
Procedure: as §1, §2

HT29 = experiment: Clonogenic assay HT29; type: cell-based; details: Homo sapiens, HT-29, Colon
Procedure: as §3

U138MG [6] = experiment: Clonogenic assay U138MG; type: cell-based; details: Homo sapiens, U138-MG, Glioma
Procedure: as §3

QG56 = experiment: Clonogenic assay QG56; type: cell-based; details: Homo sapiens, QG-56, Lung
Procedure: as §3

B16 [7] = experiment: Clonogenic assay B16; type: cell-based; details: Mus musculus, Melanoma
Procedure: as §3

IRS1 = IRS1 Ser-phosphorylation in YUMAC cells; type: cell-based, human; details: metastatic melanoma YUMAC cells
Procedure: (§4) In addition, lysates were prepared from cells exposed to inhibitors at various concentrations for 24 hours in the presence or the absence of FCS without stimulation. Lysate preparation and western blot were the same as described above. Apoptosis was detected by immunoblotting with rabbit anti-PARP antibodies.

[8] = tested on: metastatic melanoma YUMAC cells; experiment: Apoptosis (cleaved PARP) in YUMAC cells; type: cell-based, human; details: 24 hours of exposure, 3 μM
Procedure: as §4

[9] = Melanoma, YUMAC, 72 hours, read-out: Proliferation assay IC50
[10] = Table 4, 72 hours incubation, read-out: Inhibition of human metastatic melanoma cells, YUMAC IC50
[11] = Melanoma, YURIF, 72 hours, read-out: Proliferation assay IC50
[12] = Table 4, 72 hours incubation, read-out: Inhibition of human metastatic melanoma cells, YURIF IC50

| Compound | IC50 (PANC1) [nM] | IC50 (YUMAC; [9]) [nM] | IC50 (YUMAC; [10]) [nM] | Apoptosis (cleaved PARP detection) [1] | IC50 (MDA MB 231) [nM] | IC50 (B16 [2]) [nM] | IC50 (OVCAR3) [nM] | IC50 (PC3 [3]; Homo sapiens, PC-3, 72 h) [nM] | IC50 (DU145) [nM] | IC50 (LIM 1215) [nM] | IC50 (AsPC1) [nM] | IC50 (A2780) [nM] | IC50 (NCl-H526) [nM] | IC50 (U138MG [4]) [nM] | IC50 (BAF3 Bcr-Abl) [nM] | IC50 (YURIF; [11]) [nM] | IC50 (YURIF; [12]) [nM] | IC50 (T47D) [nM] | IC50 (U266) [nM] | IC50 (PC3 [5]) [nM] | other results |
| --- | --- | --- | --- | --- | --- | --- | --- | --- | --- | --- | --- | --- | --- | --- | --- | --- | --- | --- | --- | --- | --- |
| N#C/C(=C\c1cc(O)c(O)c(Br)c1)C(=S)NCc1cc(O)c(O)c(Br)c1 [Compound 6] | > 10000 | 8500 | 8500 | undergo apoptosis | > 10000 | 7900 | > 10000 | > 10000 | > 10000 | > 10000 | > 10000 | 6800 | > 10000 | 2000 | 7700 | > 10000 | > 10000 | > 10000 | 9800 | 700 | IC50 (SKBR-3): > 10000 nM; IC50 (K562): > 10000 nM; IC50 (Colo-205): > 10000 nM; IC50 (HT29): 9500 nM; IC50 (U138MG [6]): 2200 nM; IC50 (QG56): 2400 nM; IC50 (B16 [7]): 800 nM |
| Oc1cc(CNC(=S)/C=C/c2cc(O)c(O)c(Br)c2)cc(O)c1O [Compound 9] | > 10000 | 600 | 600 | undergo apoptosis | > 10000 | 1400 | 900 | 2700 | 1800 | 3300 | > 10000 | 400 | > 10000 | 200 | 6100 | 700 | 650 | 1600 | 900 | 1200 | IRS1 Ser-phosphorylation (IRS1): trigger IRS1-ser phosphorylation; also recorded: detected; IC50 (PC3 [3]; 72 hours): 2000 nM; IC50 (SKBR-3): 6000 nM; IC50 (K562): > 10000 nM; IC50 (Colo-205): 1700 nM; IC50 (HT29): 1600 nM; IC50 (U138MG [6]): 500 nM; IC50 (QG56): 500 nM; Cleavage of PARP (apoptosis) [8]: detected |
| N#C/C(=C\c1cc(O)c(O)c(I)c1)C(=S)NCc1cc(O)c(O)c(O)c1 [Compound 8] | > 10000 | 1200 | 1200 | undergo apoptosis | 7400 | 1700 | 1900 | 4600 | 6500 | 6400 | 9500 | 600 | > 10000 | 800 | > 10000 | 1600 | 1600 | 2500 | 800 | 1000 | IRS1 Ser-phosphorylation (IRS1): trigger IRS1-ser phosphorylation; also recorded: detected; IC50 (PC3 [3]; 72 hours): 3600 nM; IC50 (SKBR-3): 9000 nM; IC50 (K562): ~10000 nM; IC50 (Colo-205): 2500 nM; IC50 (HT29): 5600 nM; IC50 (U138MG [6]): 1600 nM; IC50 (QG56): 1400 nM; Cleavage of PARP (apoptosis) [8]: detected; IC50 (B16 [7]): 400 nM |
| N#C/C(=C\c1cc(O)c(O)c(Br)c1)C(=S)NCc1cc(O)c(O)c(O)c1 [Compound 7] | > 10000 | 1200 | 1200 | undergo apoptosis | 6300 | 1900 | 2000 | 2800 | 6600 | 6500 | > 10000 | 600 | > 10000 | 800 | 8200 | 1400 | 1400 | 2100 | 800 | 4200 | IRS1 Ser-phosphorylation (IRS1): detected; IC50 (PC3 [3]; 72 hours): 3900 nM; IC50 (SKBR-3): 9900 nM; IC50 (K562): ~10000 nM; IC50 (Colo-205): 5400 nM; IC50 (HT29): 2800 nM; IC50 (U138MG [6]): 1800 nM; IC50 (QG56): 1700 nM; Cleavage of PARP (apoptosis) [8]: detected; IC50 (B16 [7]): 400 nM |
